Key:
[1] = Stability in human plasma assessed as compound remaining at 100 uM measured after 30 mins by LC-MS/MS analysis; format: ADME, cell-free; conditions: read-out: Stability
[2] = Stability in human plasma assessed as compound remaining at 100 uM measured after 15 mins by LC-MS/MS analysis; format: ADME, cell-free; conditions: read-out: Stability
[3] = Cytotoxicity against human BEAS-2B cells assessed as inhibition of cell viability incubated for 48 hrs by CCK-8 assay; format: toxicity, cell-based
[4] = biological target: CYP2C19 (Homo sapiens, UniProt P33261); assay: Inhibition of CYP2C19 in human liver microsome at 10 uM pre-incubated with compound for 5 mins followed NADPH addition and measured after 30 mins by LC-MS/MS analysis relative to control; format: ADME; conditions: liver microsomes, time 35 min
[5] = Metabolic stability in liver microsomes (unknown origin) assessed as compound remaining at 0.5 mg/ml measured immediately in presence of NADPH regenerating system by LC-MS/MS analysis relative to control; format: ADME, Microsome; conditions: read-out: Stability
[6] = Metabolic stability in liver microsomes (unknown origin) assessed as half life at 0.5 mg/ml measured up to 60 mins by LC-MS/MS analysis; format: ADME, Microsome
[7] = biological target: T1, Cytochrome P450 1B1 (Homo sapiens, UniProt Q16678); assay: Inhibition of human recombinant CYP1B1 using 7-ethoxyresorufin as substrate incubated under dark condition for 30 mins in presence of NADPH by EROD fluorescence assay; format: ADME
T1 sequence (Q16678 whole entry): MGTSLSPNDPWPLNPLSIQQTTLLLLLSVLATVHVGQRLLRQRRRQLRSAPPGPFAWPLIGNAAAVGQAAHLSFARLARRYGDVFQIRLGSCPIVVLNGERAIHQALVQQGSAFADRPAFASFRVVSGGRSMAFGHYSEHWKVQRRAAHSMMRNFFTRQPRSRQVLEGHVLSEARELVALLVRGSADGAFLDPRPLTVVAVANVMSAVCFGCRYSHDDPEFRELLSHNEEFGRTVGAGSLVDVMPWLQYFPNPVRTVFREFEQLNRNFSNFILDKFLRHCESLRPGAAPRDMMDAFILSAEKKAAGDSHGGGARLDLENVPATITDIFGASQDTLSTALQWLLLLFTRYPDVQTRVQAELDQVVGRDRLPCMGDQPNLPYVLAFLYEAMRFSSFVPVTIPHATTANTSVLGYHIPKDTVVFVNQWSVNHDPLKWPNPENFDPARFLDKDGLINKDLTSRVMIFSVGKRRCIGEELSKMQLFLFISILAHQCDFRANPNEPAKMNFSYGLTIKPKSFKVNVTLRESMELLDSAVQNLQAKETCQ

[8] = species: Homo sapiens; assay: Selectivity index, ratio of IC50 for human recombinant CYP1A2 to IC50 for human recombinant CYP1B1 using 7-ethoxyresorufin as substrate
[9] = Stability in human plasma assessed as compound remaining at 100 uM measured after 5 mins by LC-MS/MS analysis; format: ADME, cell-free; conditions: read-out: Stability
[10] = biological target: CYP3A4 (Homo sapiens, UniProt P08684); assay: Inhibition of CYP3A4 in human liver microsome at 10 uM pre-incubated with compound for 5 mins followed NADPH addition and measured after 5 mins by LC-MS/MS analysis relative to control; format: ADME; conditions: liver microsomes, time 10 min
[11] = Stability in human plasma assessed as compound remaining at 100 uM measured after 120 mins by LC-MS/MS analysis; format: ADME, cell-free; conditions: read-out: Stability
[12] = Cytotoxicity against HUVEC assessed as inhibition of cell viability incubated for 48 hrs by CellTiter Glo assay; format: toxicity, cell-based; conditions: human, HUVEC cells
[13] = biological target: CYP2C9 (Homo sapiens, UniProt P11712); assay: Inhibition of CYP2C9 in human liver microsome at 10 uM pre-incubated with compound for 5 mins followed NADPH addition and measured after 10 mins by LC-MS/MS analysis relative to control; format: ADME; conditions: liver microsomes, time 15 min
[14] = Stability in human plasma assessed as half life at 100 uM measured up to 120 mins by LC-MS/MS analysis; format: ADME, cell-free
[15] = Metabolic stability in liver microsomes (unknown origin) assessed as compound remaining at 0.5 mg/ml measured after 60 mins in presence of NADPH regenerating system by LC-MS/MS analysis relative to control; format: ADME, Microsome; conditions: read-out: Stability
[16] = biological target: CYP2D6 (Homo sapiens, UniProt P10635); assay: Inhibition of CYP2D6 in human liver microsome at 10 uM pre-incubated with compound for 5 mins followed NADPH addition and measured after 10 mins by LC-MS/MS analysis relative to control; format: ADME; conditions: liver microsomes, time 15 min
[17] = biological target: T2, Cytochrome P450 1A1 (Homo sapiens, UniProt P04798); assay: Inhibition of human recombinant CYP1A1 using 7-ethoxyresorufin as substrate incubated under dark condition for 15 mins in presence of NADPH by EROD fluorescence assay; format: ADME
T2 sequence (P04798 whole entry): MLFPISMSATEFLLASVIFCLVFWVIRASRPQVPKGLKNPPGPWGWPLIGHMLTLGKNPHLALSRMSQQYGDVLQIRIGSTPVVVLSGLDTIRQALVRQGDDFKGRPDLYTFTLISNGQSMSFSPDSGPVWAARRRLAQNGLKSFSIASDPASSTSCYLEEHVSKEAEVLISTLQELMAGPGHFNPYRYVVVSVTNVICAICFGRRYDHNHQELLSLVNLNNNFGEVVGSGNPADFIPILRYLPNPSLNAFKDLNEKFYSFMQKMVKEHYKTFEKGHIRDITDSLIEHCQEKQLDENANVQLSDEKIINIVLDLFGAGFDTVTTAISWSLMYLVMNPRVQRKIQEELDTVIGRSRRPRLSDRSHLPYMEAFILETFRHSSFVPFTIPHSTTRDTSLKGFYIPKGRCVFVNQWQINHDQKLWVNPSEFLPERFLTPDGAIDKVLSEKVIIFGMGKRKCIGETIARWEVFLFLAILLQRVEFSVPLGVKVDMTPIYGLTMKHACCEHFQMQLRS

[18] = Stability in human plasma assessed as compound remaining at 100 uM measured after 60 mins by LC-MS/MS analysis; format: ADME, cell-free; conditions: read-out: Stability
[19] = tested on: A549; assay: Antiproliferative against human A549 cells assessed as inhibition of cell viability incubated for 48 hrs by CCK-8 assay; format: functional, cell-based; conditions: A549, 48 h
[20] = tested on: A549/TR; assay: Reversal of drug resistance in human A549/Taxol cells assessed as increase in paclitaxel-induced cytotoxicity incubated for 48 hrs by CCK-8 assay; format: functional, cell-based; conditions: dose 2.5-10 µM
[21] = Metabolic stability in liver microsomes (unknown origin) assessed as compound remaining at 0.5 mg/ml measured after 15 mins in presence of NADPH regenerating system by LC-MS/MS analysis relative to control; format: ADME, Microsome; conditions: read-out: Stability
[22] = Stability in human plasma assessed as compound remaining at 100 uM measured immediately by LC-MS/MS analysis; format: ADME, cell-free; conditions: read-out: Stability
[23] = Metabolic stability in liver microsomes (unknown origin) assessed as compound remaining at 0.5 mg/ml measured after 30 mins in presence of NADPH regenerating system by LC-MS/MS analysis relative to control; format: ADME, Microsome; conditions: read-out: Stability
[24] = biological target: Cytochrome P450 3A4 (Homo sapiens, UniProt P08684); assay: Inhibition of CYP3A4 in human liver microsome pre-incubated with compound for 5 mins followed NADPH addition and measured after 5 mins by LC-MS/MS analysis; format: ADME, microsomes
Chain of Cytochrome P450 3A4 (P08684 whole entry): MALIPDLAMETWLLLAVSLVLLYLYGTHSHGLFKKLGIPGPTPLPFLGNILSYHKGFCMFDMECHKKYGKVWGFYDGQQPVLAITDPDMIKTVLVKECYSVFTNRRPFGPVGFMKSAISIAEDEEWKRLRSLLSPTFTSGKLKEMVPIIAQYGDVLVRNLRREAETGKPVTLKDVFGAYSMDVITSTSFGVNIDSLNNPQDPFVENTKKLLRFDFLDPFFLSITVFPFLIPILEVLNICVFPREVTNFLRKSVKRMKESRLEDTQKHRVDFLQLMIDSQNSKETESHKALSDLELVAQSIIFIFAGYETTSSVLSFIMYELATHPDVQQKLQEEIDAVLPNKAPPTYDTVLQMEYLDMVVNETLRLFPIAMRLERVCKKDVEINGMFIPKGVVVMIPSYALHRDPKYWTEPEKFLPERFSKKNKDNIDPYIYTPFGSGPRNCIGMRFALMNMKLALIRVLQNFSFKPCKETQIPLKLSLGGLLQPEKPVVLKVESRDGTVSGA

Chain of CYP3A4 (P08684 whole entry): as above
Chain of CYP2C9 (P11712 whole entry): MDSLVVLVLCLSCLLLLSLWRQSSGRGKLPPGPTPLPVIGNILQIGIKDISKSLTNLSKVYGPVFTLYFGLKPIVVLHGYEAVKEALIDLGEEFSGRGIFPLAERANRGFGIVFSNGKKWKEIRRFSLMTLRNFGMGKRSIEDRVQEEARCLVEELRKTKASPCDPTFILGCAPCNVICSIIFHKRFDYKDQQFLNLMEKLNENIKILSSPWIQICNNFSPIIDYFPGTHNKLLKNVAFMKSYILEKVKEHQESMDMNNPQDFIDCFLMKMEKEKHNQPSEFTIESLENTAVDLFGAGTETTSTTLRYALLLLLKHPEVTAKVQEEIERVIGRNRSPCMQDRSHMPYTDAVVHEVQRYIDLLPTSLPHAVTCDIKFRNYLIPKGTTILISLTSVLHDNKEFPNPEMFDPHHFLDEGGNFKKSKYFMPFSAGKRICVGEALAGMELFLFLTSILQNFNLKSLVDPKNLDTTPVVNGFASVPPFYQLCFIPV
Chain of CYP2C19 (P33261 whole entry): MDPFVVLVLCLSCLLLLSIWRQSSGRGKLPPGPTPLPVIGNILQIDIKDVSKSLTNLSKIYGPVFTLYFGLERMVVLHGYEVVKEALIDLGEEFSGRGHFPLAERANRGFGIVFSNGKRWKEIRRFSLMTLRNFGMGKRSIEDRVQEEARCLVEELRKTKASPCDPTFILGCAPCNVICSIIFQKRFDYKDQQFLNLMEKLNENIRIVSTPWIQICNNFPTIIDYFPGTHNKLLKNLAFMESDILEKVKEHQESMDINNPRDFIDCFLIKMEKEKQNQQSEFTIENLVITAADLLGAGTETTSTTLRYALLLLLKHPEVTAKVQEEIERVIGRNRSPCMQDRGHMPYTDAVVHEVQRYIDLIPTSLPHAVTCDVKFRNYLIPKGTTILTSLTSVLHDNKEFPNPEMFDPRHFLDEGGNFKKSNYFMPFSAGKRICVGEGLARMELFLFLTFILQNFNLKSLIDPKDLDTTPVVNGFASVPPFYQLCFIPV
Chain of CYP2D6 (P10635 whole entry): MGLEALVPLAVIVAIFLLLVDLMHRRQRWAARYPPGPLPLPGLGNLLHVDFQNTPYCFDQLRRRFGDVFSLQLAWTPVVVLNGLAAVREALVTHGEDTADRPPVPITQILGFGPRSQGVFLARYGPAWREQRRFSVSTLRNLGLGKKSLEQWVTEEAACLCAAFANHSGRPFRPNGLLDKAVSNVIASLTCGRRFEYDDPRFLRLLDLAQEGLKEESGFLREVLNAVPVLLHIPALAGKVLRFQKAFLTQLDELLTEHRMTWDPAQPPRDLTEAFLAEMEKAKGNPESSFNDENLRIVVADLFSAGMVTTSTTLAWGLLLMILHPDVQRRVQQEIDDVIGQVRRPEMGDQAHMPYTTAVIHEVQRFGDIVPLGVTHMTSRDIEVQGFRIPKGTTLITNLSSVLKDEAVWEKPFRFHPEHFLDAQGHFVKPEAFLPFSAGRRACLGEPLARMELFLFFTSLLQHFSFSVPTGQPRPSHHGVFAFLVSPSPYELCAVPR

Row | remaining at 0.5 h, 100 µM [1] | remaining at 0.25 h, 100 µM [2] | inhibition at 0.5 h, 10 µM [4] | remaining at 0 min [5] | half-life [6] | IC50 [7] | Ratio IC50 [8] | remaining at 5 min, 100 µM [9] | inhibition at 5 min, 10 µM [10] | remaining at 2 h, 100 µM [11] | inhibition at 10 min, 10 µM [13] | half-life at 100 µM [14] | remaining at 1 h [15] | inhibition at 10 min, 10 µM [16] | IC50 [17] | remaining at 1 h, 100 µM [18] | IC50 [19] | Structure (SMILES) | IC50 at 48 h [3] | IC50 at 48 h [12] | Activity [20] | also measured
1 | 116% | 102% | 1.45% | 100% | > 1 h | 1.77 nM | > 56400 | 106% | 86.6% | 103% | 2.21% | > 2 h | 97.1% | 0% | > 100 µM | 114% | > 20 µM | N#Cc1ccc(-c2csc(C(=O)Nc3cc(Cl)cc(Cl)c3)n2)cc1 | > 20 µM | > 40 µM | Dose-dependent-effect; Compound Showed Robust Reversal Activity | remaining at 0.25 h [21]: 101%; remaining at 0 min, 100 µM [22]: 100%; remaining at 0.5 h [23]: 102%; IC50 [24]: 1.55 µM
2 | 110% | 94.2% | 60.8% | 100% | 1.17 h | 0.05 nM | > 200000 | 99% | 77.1% | 93.4% | 17.4% | > 2 h | 54.3% | 23.1% | 0.0773 µM | 100% | > 20 µM | N#Cc1ccc(-c2csc(C(=O)Nc3ccc(C(F)(F)F)cc3)n2)cc1 | > 20 µM | > 40 µM | Dose-dependent-effect | remaining at 0.25 h [21]: 80.4%; remaining at 0 min, 100 µM [22]: 100%; remaining at 0.5 h [23]: 72.5%; IC50 [24]: 2.97 µM
3 | 106% | 104% | 7.73% | 100% | > 1 h | 1.48 nM | > 54000 | 87.1% | 0.94% | 93.9% | 2.21% | > 2 h | 96.6% | 0% | > 100 µM | 96.1% | 7.5 µM | O=C(Nc1cc(Cl)cc(Cl)c1)c1nc(-c2cccc(Cl)c2)cs1 | > 20 µM | > 40 µM | Dose-dependent-effect | remaining at 0.25 h [21]: 102%; remaining at 0 min, 100 µM [22]: 100%; remaining at 0.5 h [23]: 98.2%; IC50 [24]: > 10 µM

Reference: ChEMBL document CHEMBL6182948 (J Med Chem, 2025)
